Patent publication US20250099482A1, “TIP60 NEURO-EPIGENETIC MODULATORS” (Drexel University, priority 2023, published 2025)
Entries after “also recorded” stand apart in the source; their conditions may differ. One block for each compound: values may come before it.

How the values were obtained:
[1] = system: Drosophila Tip60 knockdown model; experiment: In vivo larval locomotor speed assay in Tip60-RNAi knockdown model; settings: Tip60-RNAi larvae, compound in fly food, vs DMSO vehicle; for rescue of locomotor ability (larval speed): 10 nM to 100 μM
Tip60 = target: T1, Tip60 (Homo sapiens, UniProt Q92993); experiment: In vitro histone acetylation activity assay (Tip60); assay type: biochemical; settings: for effect on Tip60's HAT activity (Histone H4 acetylation, fluorescence): 20 μM compound, vs Tip60+DMSO
T1 construct: purchased Active Motif 81975
T1 sequence (Q92993 whole entry): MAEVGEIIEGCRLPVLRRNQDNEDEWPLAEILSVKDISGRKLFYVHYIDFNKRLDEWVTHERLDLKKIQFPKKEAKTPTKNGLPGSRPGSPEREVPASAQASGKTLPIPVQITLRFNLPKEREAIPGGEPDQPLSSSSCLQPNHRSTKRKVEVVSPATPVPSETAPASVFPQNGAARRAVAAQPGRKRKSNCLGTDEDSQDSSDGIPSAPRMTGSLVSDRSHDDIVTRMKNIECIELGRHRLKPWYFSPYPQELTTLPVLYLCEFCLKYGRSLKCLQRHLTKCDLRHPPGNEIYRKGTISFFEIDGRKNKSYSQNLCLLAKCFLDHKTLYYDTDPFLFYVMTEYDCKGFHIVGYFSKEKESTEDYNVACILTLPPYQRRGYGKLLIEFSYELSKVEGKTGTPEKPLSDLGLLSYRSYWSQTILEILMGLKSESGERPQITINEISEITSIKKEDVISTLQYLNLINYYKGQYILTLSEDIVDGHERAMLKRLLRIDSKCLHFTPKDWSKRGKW
Procedure: HAT assays were performed according to manufacturer's instructions in HAT Assay Kit (Active Motif 56100). Briefly, 375 ng Tip60 protein (Active motif: 81975) was incubated with 50 μM Histone H4 peptide, 50 μM Acetyl-CoA and indicated drug concentrations for 30 minutes at room temperature. After stopping the reaction and developing free sulfhydryl groups, […] was recorded at excitation 360-390 nm and emission 460-490 nm using Glomax fluorescence microplate reader. Specific enzyme activity (pmol/min/μg) was calculated by 1. Subtracting background fluorescence from that of assay samples to obtain arbitrary fluorescence units (AFU); and (2) Dividing the difference by the incubation time to obtain AFU/minute. 3. Dividing the AFU/minute by the slope of standard curve in AFU/pmol to obtain the rate in pmol/minute. 4. Dividing pmol/min by the amount of enzyme used to obtain final readings in pmol/minute/μg.

GST-Tip60 protein = target: T2, GST-Tip60 protein (Homo sapiens, UniProt Q92993); experiment: In vitro surface plasma resonance (SPR) Tip60-compound binding; settings: for Corrected Response: DMSO corrected
T2 construct: purchased Abcam ab2686960
T2 sequence (Q92993 whole entry): as above
Procedure: SPR protein-compound binding interactions were analyzed on Biacore 3000 biosensor (Global Cytiva Lifesciences) at 25° C. PBS-P (10 mM Phosphate, 150 mM NaCl, pH 7.4, 0.005% P-20) was used as the running buffer and a HAT-optimized binding buffer (50 mM HEPES, pH 7.4, 500 mM NaCl, 0.05% [v/v] Tween 20, 5 mM DTT, 10% [w/v] glycerol, 2% [v/v] DMSO) was used. A CM5 sensor chip was docked and derivatized by amine coupling to capture anti-GST antibody using freshly prepared 1:1 50 mM NHS (N-hydroxysuccinamide): 200 mM EDC (1-ethyl-3-(3-(dimethylamino) propyl) carbodiimide) followed by immobilization of GST-Tip60 protein (Abcam: ab2686960). Direct binding was determined by injecting ligands in duplicates at concentrations spanning 0.0078 μM to 50 μM with running buffer injections in between. DMSO corrections were performed as described previously. The corrected responses were transformed into % bound sites and plotted against the compound concentration. The concentration of Tip60 on the surface was estimated using [Tip60]=response (captured RU)/100*MW. To plot the % bound isotherm as a function of concentration, it is assumed that binding is 1:1 and the following equation is used: % A bound to B is 100AB/Bt=[Kd+At+Bt-SQRT((Kd+At+Bt)2−4*At*Bt)]/(2*Bt) where A=C and B=Tip60.

[2] = system: Drosophila Tip60 knockdown model; experiment: Larval line crossing / reaching the wall assay in Tip60-RNAi knockdown model; assay type: in vivo; settings: 3rd instar Tip60-RNAi larvae, compound in fly food
[3] = system: Drosophila Alzheimer's disease model (APP); experiment: Larval line crossing assay in APP Alzheimer's disease model; assay type: in vivo; settings: 3rd instar APP larvae, compound in fly food, range of concentrations

SMILES: CCOc1ccccc1C(=O)Nc1ccc(Cl)c(C(F)(F)F)c1 [CTB, N-(4-chloro-3-(trifluoromethyl)phenyl)-2-ethoxybenzamide]
rescue of locomotor ability (larval speed) [1]: significant rescue for locomotor ability
effect on Tip60's HAT activity (Tip60; CTB, low micromolar concentrations): directly enhance Tip60's HAT activity
% Bound sites (GST-Tip60 protein; 0.0078 μM): 0.05241%
Subtracted response (GST-Tip60 protein; 0.0078 μM): 8.34
Corrected Response (GST-Tip60 protein; 0.0078 μM): 0.1326
% Bound sites (GST-Tip60 protein; 0.023 μM): 0.04999%
Subtracted response (GST-Tip60 protein; 0.023 μM): 7.955
Corrected Response (GST-Tip60 protein; 0.023 μM): 0.1265
% Bound sites (GST-Tip60 protein; 0.07 μM): 0.04921%
Subtracted response (GST-Tip60 protein; 0.07 μM): 7.83
Corrected Response (GST-Tip60 protein; 0.07 μM): 0.1245
% Bound sites (GST-Tip60 protein; 0.21 μM): 0.04955%
Subtracted response (GST-Tip60 protein; 0.21 μM): 7.885
Corrected Response (GST-Tip60 protein; 0.21 μM): 0.1254
% Bound sites (GST-Tip60 protein; 0.63 μM): 0.0526%
Subtracted response (GST-Tip60 protein; 0.63 μM): 8.37
Corrected Response (GST-Tip60 protein; 0.63 μM): 0.1331
% Bound sites (GST-Tip60 protein; 1.85 μM): 0.05923%
Subtracted response (GST-Tip60 protein; 1.85 μM): 9.425
Corrected Response (GST-Tip60 protein; 1.85 μM): 0.1499
% Bound sites (GST-Tip60 protein; 5.56 μM): 0.07928%
Subtracted response (GST-Tip60 protein; 5.56 μM): 12.615
Corrected Response (GST-Tip60 protein; 5.56 μM): 0.2006
% Bound sites (GST-Tip60 protein; 17 μM): 0.1511%
Subtracted response (GST-Tip60 protein; 17 μM): 24.05
Corrected Response (GST-Tip60 protein; 17 μM): 0.3824
% Bound sites (GST-Tip60 protein; 50 μM): 0.4056%
Subtracted response (GST-Tip60 protein; 50 μM): 64.54
Corrected Response (GST-Tip60 protein; 50 μM): 1.026
Kd (GST-Tip60 protein; SPR, 25° C., read-out: KD (dissociation constant)): 28.6 µM

Subtracted response (GST-Tip60 protein; 0.0078 μM): 8.525
Corrected Response (GST-Tip60 protein; 0.0078 μM): 0.1381
Subtracted response (GST-Tip60 protein; 0.023 μM): 8.62
Corrected Response (GST-Tip60 protein; 0.023 μM): 0.1396
Subtracted response (GST-Tip60 protein; 0.07 μM): 8.545
Corrected Response (GST-Tip60 protein; 0.07 μM): 0.1384
Subtracted response (GST-Tip60 protein; 0.21 μM): 8.575
Corrected Response (GST-Tip60 protein; 0.21 μM): 0.1389
Subtracted response (GST-Tip60 protein; 0.63 μM): 8.99
Corrected Response (GST-Tip60 protein; 0.63 μM): 0.1456
Subtracted response (GST-Tip60 protein; 1.85 μM): 10.085
Corrected Response (GST-Tip60 protein; 1.85 μM): 0.1634
Subtracted response (GST-Tip60 protein; 5.56 μM): 13.355
Corrected Response (GST-Tip60 protein; 5.56 μM): 0.2164
Subtracted response (GST-Tip60 protein; 17 μM): 25.005
Corrected Response (GST-Tip60 protein; 17 μM): 0.4051
Subtracted response (GST-Tip60 protein; 50 μM): 66.335
Corrected Response (GST-Tip60 protein; 50 μM): 1.075
SMILES: CCCCCCCCCCCCCCCc1cccc(OCC)c1C(=O)Nc1ccc(Cl)c(C(F)(F)F)c1 [CTPB, N-(4-chloro-3-(trifluoromethyl)phenyl)-2-ethoxy-6-pentadecylbenzamide]
rescue of locomotor ability (larval speed) [1]: significant rescue for locomotor ability

SMILES: CCOc1ccccc1C(=O)Nc1ccc(Cl)c(C(F)(F)F)c1 [Compound C1, N-(4-chloro-3-(trifluoromethyl)phenyl)-2-ethoxybenzamide]
rescue of locomotor defects (larval speed), performance as compared to CTB [1]: low-performing compounds

SMILES: O=C(Nc1ccc(Cl)c(C(F)(F)F)c1)c1ccccc1OC[C@@H]1CCCO1 [Compound C2, (S)-N-(4-chloro-3-(trifluoromethyl)phenyl)-2-((tetrahydrofuran-2-yl)methoxy)benzamide]
rescue of locomotor defects (larval speed), performance as compared to CTB [1]: highest performers

SMILES: O=C(Nc1ccc(Cl)c(C(F)(F)F)c1)c1ccccc1OC[C@H]1CCCO1 [Compound C3, (R)-N-(4-chloro-3-(trifluoromethyl)phenyl)-2-((tetrahydrofuran-2-yl)methoxy)benzamide]
rescue of locomotor defects (larval speed), performance as compared to CTB [1]: low-performing compounds

SMILES: O=C(Nc1ccc(Cl)c(C(F)(F)F)c1)c1ccccc1OCC(=O)N1CCOCC1 [Compound C4, N-(4-chloro-3-(trifluoromethyl)phenyl)-2-(2-morpholino-2-oxoethoxy)benzamide]
rescue of locomotor defects (larval speed), performance as compared to CTB [1]: did not show an effect even at high concentrations

SMILES: CCOc1cccc(OCCN(C)C)c1C(=O)Nc1ccc(Cl)c(C(F)(F)F)c1 [Compound C5, N-(4-chloro-3-(trifluoromethyl)phenyl)-2-(2-(dimethylamino)ethoxy)-6-ethoxybenzamide]
rescue of locomotor defects (larval speed), performance as compared to CTB [1]: highest performers

SMILES: CC(C)Oc1ccccc1C(=O)Nc1ccc(Cl)c(C(F)(F)F)c1 [Compound C6, N-(4-chloro-3-(trifluoromethyl)phenyl)-2-isopropoxybenzamide]
rescue of locomotor defects (larval speed), performance as compared to CTB [1]: low-performing compounds

SMILES: O=C(Nc1ccc(Cl)c(C(F)(F)F)c1)c1ccccc1OC[C@@H]1CCCS1(=O)=O [Compound C7, (S)-N-(4-chloro-3-(trifluoromethyl)phenyl)-2-((1,1-dioxidotetrahydrothiophen-2-yl)methoxy)benzamide]
rescue of locomotor defects (larval speed), performance as compared to CTB [1]: low-performing compounds

SMILES: O=C(Nc1ccc(Cl)c(C(F)(F)F)c1)c1ccccc1OC[C@H]1CCCS1(=O)=O [Compound C8, (R)-N-(4-chloro-3-(trifluoromethyl)phenyl)-2-((1,1-dioxidotetrahydrothiophen-2-yl)methoxy)benzamide]
rescue of locomotor defects (larval speed), performance as compared to CTB [1]: highest performers

SMILES: CCOCC[C@H](O)COc1ccccc1C(=O)Nc1ccc(Cl)c(C(F)(F)F)c1 [Compound C9, (S)-N-(4-chloro-3-(trifluoromethyl)phenyl)-2-(4-ethoxy-2-hydroxybutoxy)benzamide]
rescue of locomotor defects (larval speed), performance as compared to CTB [1]: low-performing compounds

SMILES: CCOCC[C@@H](O)COc1ccccc1C(=O)Nc1ccc(Cl)c(C(F)(F)F)c1 [Compound C10, (R)-N-(4-chloro-3-(trifluoromethyl)phenyl)-2-(4-ethoxy-2-hydroxybutoxy)benzamide]
rescue of locomotor defects (larval speed), performance as compared to CTB [1]: low-performing compounds

SMILES: CCOc1ccccc1C(=O)Nc1cnn(Cc2ccc(C)cc2)c1 [Compound P6, 2-ethoxy-N-(1-(4-methylbenzyl)-1H-pyrazol-4-yl)benzamide]
effect on Tip60's HAT activity (Histone H4 acetylation, fluorescence) (Tip60): enhanced Tip60's HAT activity; also recorded: highest level of Tip60 HAT activation
rescue of Tip60 knockdown induced locomotion deficits (line crossing in 30 seconds) [2]: rescue locomotor speed defect; also recorded: inconsistent rescue results
rescue of AD associated locomotion defects (line crossing, reaching wall) [3]: high rescue overall, its action was inconsistent

effect on Tip60's HAT activity (Histone H4 acetylation, fluorescence) (Tip60): enhanced Tip60's HAT activity
SMILES: COc1ccc(NCc2c(OCc3ccc(F)cc3)ccc3ccccc23)cc1Cl [Compound P9, 3-chloro-N-((2-((4-fluorobenzyl)oxy)naphthalen-1-yl)methyl)-4-methoxyaniline]

SMILES: O=C(NCc1ccccc1Cn1cncn1)c1cn(Cc2ccccc2)c2ccccc12 [Compound P11, N-(2-((1H-1,2,4-triazol-1-yl)methyl)benzyl)-1-benzyl-1H-indole-3-carboxamide]
effect on Tip60's HAT activity (Histone H4 acetylation, fluorescence) (Tip60): enhanced Tip60's HAT activity

Subtracted response (GST-Tip60 protein; 0.0078 μM): 8.58
Corrected Response (GST-Tip60 protein; 0.0078 μM): 0.127
Subtracted response (GST-Tip60 protein; 0.023 μM): 7.78
Corrected Response (GST-Tip60 protein; 0.023 μM): 0.1151
Subtracted response (GST-Tip60 protein; 0.07 μM): 7.42
Corrected Response (GST-Tip60 protein; 0.07 μM): 0.1098
Subtracted response (GST-Tip60 protein; 0.21 μM): 7.24
Corrected Response (GST-Tip60 protein; 0.21 μM): 0.1072
Subtracted response (GST-Tip60 protein; 0.63 μM): 7.51
Corrected Response (GST-Tip60 protein; 0.63 μM): 0.1111
Subtracted response (GST-Tip60 protein; 1.85 μM): 8.17
Corrected Response (GST-Tip60 protein; 1.85 μM): 0.1209
Subtracted response (GST-Tip60 protein; 5.56 μM): 11.34
Corrected Response (GST-Tip60 protein; 5.56 μM): 0.1678
Subtracted response (GST-Tip60 protein; 17 μM): 22.255
Corrected Response (GST-Tip60 protein; 17 μM): 0.3294
Subtracted response (GST-Tip60 protein; 50 μM): 61.705
Corrected Response (GST-Tip60 protein; 50 μM): 0.9132
SMILES: Cc1cc(-c2ccccc2)cc(C(=O)NNS(=O)(=O)c2ccccc2)c1F [WM8014, N′-(4-fluoro-5-methyl-[1,1′-bipheny1]-3-carbonyl)benzenesulfonohydrazide]
